Measured values: paper PMC10788925 (Journal of Medicinal Chemistry, 2023)
“And” between values parts separate entries of the source, which are not always exact repeats. Identical values can stand only once. Like-named read-outs stand apart in the source and are kept apart here.

Tests used:
HEV-3 replicon p6-Gluc = experiment: microbe, parasite or virus in culture; assay type: cell-based, Hepatitis E virus
in vitro = conditions: human
[1] = Hepatitis E virus, HepG2, 24 h, read-out: HEV, EC90 (24 h, nM)
[2] = Hepatitis E virus, HepG2, 48 h, read-out: HEV, EC90 (48 h, nM)2

| Compound | EC50 (HEV-3 replicon p6-Gluc; Hepatitis E virus, HepG2, 24 h) | EC90 (HEV-3 replicon p6-Gluc; Hepatitis E virus, HepG2, 24 h) | EC50 (HEV-3 replicon p6-Gluc; Hepatitis E virus, HepG2, 48 h) | EC90 (HEV-3 replicon p6-Gluc; Hepatitis E virus, HepG2, 48 h) | CC50 at 24 h (in vitro) | CC50 at 48 h (in vitro) | EC90 (HEV-3 replicon p6-Gluc; [1]) | EC90 (HEV-3 replicon p6-Gluc; [2]) | CC50 (in vitro) | EC50 (HEV-3 replicon p6-Gluc; read-out: EC50) | EC90 (HEV-3 replicon p6-Gluc; read-out: EC90) |
| --- | --- | --- | --- | --- | --- | --- | --- | --- | --- | --- | --- |
| COc1ccc([C@@]23Oc4cc(OC)cc(OC)c4[C@]2(O)[C@H](O)[C@H](C(=O)N(C)C)[C@H]3c2ccccc2)cc1 (racemic) [(±)-rocaglamide (rac-1b), (±)-(1R,2R,3S,3aR,8bS)-1,8b-Dihydroxy-6,8-dimethoxy-3a-(4-methoxyphenyl)-N,N-dimethyl-3-phenyl-2,3,3a,8b-tetrahydro-1H-cyclopenta[b]benzofuran-2-carboxamide, reference compound] | 27.8 nM | 213 nM | 21 nM | 201 nM | 550 nM | 44.5 nM |  |  |  |  |  |
| COC(=O)[C@H]1[C@@H](O)[C@@]2(O)c3c(Cl)cc(Cl)cc3O[C@@]2(c2ccc(Br)cc2)[C@@H]1c1ccccc1 (racemic) [9db, (±)-Methyl (1R,2R,3S,3aR,8bS)-3a-(4-bromophenyl)-6,8-dichloro-1,8b-dihydroxy-3-phenyl-2,3,3a,8b-tetrahydro-1H-cyclopenta[b]benzofuran-2-carboxylate] | 29.6 nM | 128 nM | 14.7 nM | 124 nM | 389 nM | 48 nM |  |  |  |  |  |
| COC(=O)[C@H]1[C@@H](O)[C@@]2(O)c3c(OC)cc(F)cc3O[C@@]2(c2ccc(OC)cc2)[C@@H]1c1ccccc1 (racemic) [9i, (±)-Methyl (1R,2R,3S,3aR,8bS)-6-fluoro-1,8b-dihydroxy-8-methoxy-3a-(4-methoxyphenyl)-3-phenyl-2,3,3a,8b-tetrahydro-1H-cyclopenta[b]benzofuran-2-carboxylate] | > 1000 nM | > 1000 nM | 732 nM | > 1000 nM |  | 904 nM | > 1000 nM | > 1000 nM | > 1000 nM |  |  |
| COc1cc(OC)c2c(c1)O[C@@]1(c3ccc(F)cc3)[C@H](c3ccccc3)[C@@H](C(=O)N(C)C)[C@@H](O)[C@@]21O (racemic) [14baa, (±)-(1R,2R,3S,3aR,8bS)-3a-(4-fluorophenyl)-1,8b-dihydroxy-6,8-dimethoxy-N,N-dimethyl-3-phenyl-2,3,3a,8b-tetrahydro-1H-cyclopenta[b]benzofuran-2-carboxamide] | 229 nM | > 1000 nM | 208 nM | 829 nM | 966 nM | 297 nM |  |  |  |  |  |
| COC(=O)[C@H]1[C@@H](O)[C@@]2(O)c3c(OC)cc(Cl)cc3O[C@@]2(c2ccc(OC)cc2)[C@@H]1c1ccccc1 (racemic) [9k, (±)-Methyl (1R,2R,3S,3aR,8bS)-6-chloro-1,8b-dihydroxy-8-methoxy-3a-(4-methoxyphenyl)-3-phenyl-2,3,3a,8b-tetrahydro-1H-cyclopenta[b]benzofuran-2-carboxylate] | 5.4 nM | 45.1 nM | 2.5 nM | 45.5 nM | 443 nM | 19.9 nM |  |  |  |  |  |
| (±)-(1R,2R,3S,3aR,8bS)-8-Bromo-6-chloro-1,8b-dihydroxy-N-methoxy-3a-(4-methoxyphenyl)-3-phenyl-2,3,3a,8b-tetrahydro-1H-cyclopenta[b]benzofuran-2-carboxamide [14g] |  |  |  |  |  |  |  |  |  | 4.1 nM and 5.5 nM |  |
| COC(=O)[C@H]1[C@@H](O)[C@@]2(O)c3c(OC)cc(OC)cc3O[C@@]2(c2ccc(OC)cc2)[C@@H]1c1ccccc1 (racemic) [(±)-methyl rocaglate (11bc), (±)-Methyl (1R,2R,3S,3aR,8bS)-1,8b-dihydroxy-6,8-dimethoxy-3a-(4-methoxyphenyl)-3-phenyl-2,3,3a,8b-tetrahydro-1H-cyclopenta[b]benzofuran-2-carboxylate, reference compound] | 28.4 nM | 631 nM | 29.9 nM | 188 nM | 690 nM | 65.3 nM |  |  |  |  |  |
| COc1cc(OC)c2c(c1)O[C@@]1(c3ccc(Cl)cc3)[C@H](c3ccccc3)[C@@H](C(=O)N(C)C)[C@@H](O)[C@@]21O (racemic) [14aa, (±)-(1R,2R,3S,3aR,8bS)-3a-(4-chlorophenyl)-1,8b-dihydroxy-6,8-dimethoxy-N,N-dimethyl-3-phenyl-2,3,3a,8b-tetrahydro-1H-cyclopenta[b]benzofuran-2-carboxamide] | 7.2 nM | 174 nM | 8.9 nM | 102 nM | 390 nM | 22.7 nM |  |  |  |  |  |
| (±)-(1R,2R,3S,3aR,8bS)-1,8b-Dihydroxy-N,6,8-trimethoxy-3a-(4-methoxyphenyl)-3-phenyl-2,3,3a,8b-tetrahydro-1H-cyclopenta[b]benzofuran-2-carboxamide [(±)-CR-31-B (rac-1c), reference compound] |  |  |  |  |  |  |  |  |  | 6.1 nM and 3.7 nM | 27.3 nM and 29 nM |
| COCOc1cc(F)c2c(c1)O[C@@]1(c3ccc(Br)cc3)[C@H](c3ccccc3)[C@@H](C(=O)OC)[C@@H](O)[C@@]21O (racemic) [9nb, (±)-Methyl (1R,2R,3S,3aR,8bS)-3a-(4-bromophenyl)-8-fluoro-1,8b-dihydroxy-6-(methoxymethoxy)-3-phenyl-2,3,3a,8b-tetrahydro-1H-cyclopenta[b]benzofuran-2-carboxylate] | 86.9 nM | 345 nM | 63.2 nM | 298 nM | 727 nM | 113 nM |  |  |  |  |  |
| COC(=O)[C@H]1[C@@H](O)[C@@]2(O)c3c(F)cc(OC)cc3O[C@@]2(c2ccc(OC)cc2)[C@@H]1c1ccccc1 (racemic) [9h, (±)-Methyl (1R,2R,3S,3aR,8bS)-8-fluoro-1,8b-dihydroxy-6-methoxy-3a-(4-methoxyphenyl)-3-phenyl-2,3,3a,8b-tetrahydro-1H-cyclopenta[b]benzofuran-2-carboxylate] | 61 nM | > 1000 nM | 64.3 nM | 634 nM |  | 163 nM |  |  | > 1000 nM |  |  |
| COC(=O)[C@H]1[C@@H](O)[C@@]2(O)c3c(OC)cc(O[C@@H]4O[C@@H]([C@H](O)CO)CO[C@H]4OC)cc3O[C@@]2(c2ccc(OC)cc2)[C@@H]1c1ccccc1 [(−)-silvestrol (2a), silvestrol, reference compound] | 4.2 nM | 40.5 nM | 2.2 nM | 28.1 nM | 180 nM | 13.4 nM |  |  |  |  |  |
| COC(=O)[C@H]1[C@@H](O)[C@@]2(O)c3c(Br)cc(Cl)cc3O[C@@]2(c2ccc(OC)cc2)[C@@H]1c1ccccc1 (racemic) [9g, (±)-Methyl (1R,2R,3S,3aR,8bS)-8-bromo-6-chloro-1,8b-dihydroxy-3a-(4-methoxyphenyl)-3-phenyl-2,3,3a,8b-tetrahydro-1H-cyclopenta[b]benzofuran-2-carboxylate] | 52.1 nM | 482 nM | 37.9 nM | 365 nM | 812 nM | 101 nM |  |  |  |  |  |
| COC(=O)[C@H]1[C@@H](O)[C@@]2(O)c3c(OC)cc(OC)cc3O[C@@]2(c2ccc(F)cc2)[C@@H]1c1ccccc1 (racemic) [11ba, (±)-Methyl (1R,2R,3S,3aR,8bS)-3a-(4-fluorophenyl)-1,8b-dihydroxy-6,8-dimethoxy-3-phenyl-2,3,3a,8b-tetrahydro-1H-cyclopenta[b]benzofuran-2-carboxylate] | 338 nM | > 1000 nM | 334 nM | > 1000 nM |  | 421 nM | > 1000 nM | > 1000 nM | > 1000 nM |  |  |
| (±)-(1R,2R,3S,3aR,8bS)-3a-(4-fluorophenyl)-1,8b-dihydroxy-N,6,8-trimethoxy-3-phenyl-2,3,3a,8b-tetrahydro-1H-cyclopenta[b]benzofuran-2-carboxamide [14bab] |  |  |  |  |  |  |  |  |  | 53.7 nM and 52.9 nM | 338 nM and 670 nM |
| COC(=O)[C@H]1[C@@H](O)[C@@]2(O)c3c(Cl)cc(Br)cc3O[C@@]2(c2ccc(OC)cc2)[C@@H]1c1ccccc1 (racemic) [9f, (±)-Methyl (1R,2R,3S,3aR,8bS)-6-bromo-8-chloro-1,8b-dihydroxy-3a-(4-methoxyphenyl)-3-phenyl-2,3,3a,8b-tetrahydro-1H-cyclopenta[b]benzofuran-2-carboxylate] | 9.9 nM | 583 nM | 14.9 nM | 454 nM | 663 nM | 61 nM |  |  |  |  |  |
| CONC(=O)[C@H]1[C@@H](O)[C@@]2(O)c3c(Cl)cc(Cl)cc3O[C@@]2(c2ccc(OC)cc2)[C@@H]1c1ccccc1 (racemic) [14da, (±)-(1R,2R,3S,3aR,8bS)-6,8-Dichloro-1,8b-dihydroxy-N-methoxy-3a-(4-methoxyphenyl)-3-phenyl-2,3,3a,8b-tetrahydro-1H-cyclopenta[b]benzofuran-2-carboxamide] | 8.6 nM | 172 nM | 9.8 nM | 134 nM | 511 nM | 31.8 nM |  |  |  |  |  |
| (±)-(1R,2R,3S,3aR,8bS)-3a-(4-chlorophenyl)-1,8b-dihydroxy-N,6,8-trimethoxy-3-phenyl-2,3,3a,8b-tetrahydro-1H-cyclopenta[b]benzofuran-2-carboxamide [14ab] |  |  |  |  |  |  |  |  |  | 2.8 nM and 2.3 nM | 18.2 nM and 23.8 nM |
| COC(=O)[C@H]1[C@@H](O)[C@@]2(O)c3c(Br)cc(Br)cc3O[C@@]2(c2ccc(OC)cc2)[C@@H]1c1ccccc1 (racemic) [9e, (±)-Methyl (1R,2R,3S,3aR,8bS)-6,8-dibromo-1,8b-dihydroxy-3a-(4-methoxyphenyl)-3-phenyl-2,3,3a,8b-tetrahydro-1H-cyclopenta[b]benzofuran-2-carboxylate] | 36.1 nM | 362 nM | 33.2 nM | 282 nM | 766 nM | 90.2 nM |  |  |  |  |  |
| CONC(=O)[C@H]1[C@@H](O)[C@@]2(O)c3c(F)cc(OC)cc3O[C@@]2(c2ccc(OC)cc2)[C@@H]1c1ccccc1 (racemic) [14hb, (±)-(1R,2R,3S,3aR,8bS)-8-Fluoro-1,8b-dihydroxy-N,6-dimethoxy-3a-(4-methoxyphenyl)-3-phenyl-2,3,3a,8b-tetrahydro-1H-cyclopenta[b]benzofuran-2-carboxamide] | 17.2 nM | 91.2 nM | 10.9 nM | 69.8 nM | 491 nM | 27.5 nM |  |  |  |  |  |
